From ChEMBL document CHEMBL5620348, “3-Hydroxy-pyridin-4(1H)-ones as siderophores mediated delivery of isobavachalcone enhances antibacterial activity against pathogenic Pseudomonas aeruginosa” (Eur J Med Chem, 2023)
The source made the active and inactive calls. The calls are words filed in the database; no cut-off is given here.

Columns and labels:
Pseudomonas aeruginosa [1] = assay: Antibacterial activity against Pseudomonas aeruginosa PAO1 assessed as inhibition of bacterial growth incubated for 18 to 20 hrs in presence of M9 and FeCl3 medium by broth microdilution assay; assay type: functional, organism-based
Klebsiella pneumoniae = assay: Antibacterial activity against Klebsiella pneumoniae ATCC 700603 assessed as inhibition of bacterial growth by measuring minimum inhibitory concentration incubated for 18 to 20 hrs in presence of M9 medium by broth microdilution assay; assay type: functional; details: time 18-20 hrs
Staphylococcus aureus [2] = assay: Antibacterial activity against Staphylococcus aureus ATCC 25923 assessed as inhibition of bacterial growth by measuring minimum inhibitory concentration incubated for 18 to 20 hrs in presence of M9 medium by broth microdilution assay; assay type: functional; details: time 18-20 hrs
Escherichia coli = assay: Antibacterial activity against Escherichia coli ATCC 25922 assessed as inhibition of bacterial growth by measuring minimum inhibitory concentration incubated for 18 to 20 hrs in presence of M9 medium by broth microdilution assay; assay type: functional; details: time 18-20 hrs
Pseudomonas aeruginosa [3] = assay: Antibacterial activity against Pseudomonas aeruginosa PAO1 assessed as inhibition of bacterial growth incubated for 18 to 20 hrs in presence of MH medium by broth microdilution assay; assay type: functional, organism-based
Pseudomonas aeruginosa [4] = assay: Antibacterial activity against multi-drug resistant Pseudomonas aeruginosa clinical isolate FB assessed as inhibition of bacterial growth by measuring minimum inhibitory concentration incubated for 18 to 20 hrs in presence of M9 medium by broth microdilution assay; assay type: functional; details: time 18-20 hrs
Pseudomonas aeruginosa [5] = assay: Antibacterial activity against multi-drug resistant Pseudomonas aeruginosa clinical isolate 1129 assessed as inhibition of bacterial growth by measuring minimum inhibitory concentration incubated for 18 to 20 hrs in presence of M9 medium by broth microdilution assay; assay type: functional; details: time 18-20 hrs
Pseudomonas aeruginosa [6] = assay: Antibacterial activity against Pseudomonas aeruginosa PAO1 assessed as inhibition of bacterial growth by measuring minimum inhibitory concentration incubated for 18 to 20 hrs in presence of M9 and FeCl3 medium by broth microdilution assay; assay type: functional; details: time 18-20 hrs
Pseudomonas aeruginosa [7] = assay: Antibacterial activity against Pseudomonas aeruginosa PAO1 assessed as inhibition of bacterial growth incubated for 18 to 20 hrs in presence of M9 medium by broth microdilution assay; assay type: functional, organism-based
Pseudomonas aeruginosa [8] = assay: Antibacterial activity against Pseudomonas aeruginosa PAO1 assessed as inhibition of bacterial growth by measuring minimum inhibitory concentration incubated for 18 to 20 hrs in presence of MH medium by broth microdilution assay; assay type: functional; details: time 18-20 hrs
Pseudomonas aeruginosa [9] = assay: Antibacterial activity against Pseudomonas aeruginosa PAO1 assessed as inhibition of bacterial growth by measuring minimum inhibitory concentration incubated for 18 to 20 hrs in presence of M9 medium by broth microdilution assay; assay type: functional; details: time 18-20 hrs
Pseudomonas aeruginosa [10] = assay: Antibacterial activity against multi-drug resistant Pseudomonas aeruginosa clinical isolate 1167 assessed as inhibition of bacterial growth by measuring minimum inhibitory concentration incubated for 18 to 20 hrs in presence of M9 medium by broth microdilution assay; assay type: functional; details: time 18-20 hrs
Pseudomonas aeruginosa [11] = assay: Antibacterial activity against Pseudomonas aeruginosa ATCC27853 assessed as inhibition of bacterial growth by measuring minimum inhibitory concentration incubated for 18 to 20 hrs in presence of M9 medium by broth microdilution assay; assay type: functional; details: time 18-20 hrs
Pseudomonas aeruginosa [12] = assay: Antibacterial activity against multi-drug resistant Pseudomonas aeruginosa clinical isolate 1121 assessed as inhibition of bacterial growth by measuring minimum inhibitory concentration incubated for 18 to 20 hrs in presence of M9 medium by broth microdilution assay; assay type: functional; details: time 18-20 hrs
Staphylococcus aureus [13] = assay: Antibacterial activity against Staphylococcus aureus ATCC 25923 assessed as inhibition of bacterial growth incubated for 18 to 20 hrs in presence of M9 medium by broth microdilution assay; assay type: functional, organism-based; details: time 18-20 hrs
Pseudomonas aeruginosa [14] = assay: Antibacterial activity against Pseudomonas aeruginosa PAO1 assessed as inhibition of bacterial growth at 32 ug/ml incubated upto 24 hrs by time-kill based microplate reader assay; assay type: functional, organism-based; details: dose 32.0 µg/ml
Pseudomonas aeruginosa [15] = assay: Antibacterial activity against Pseudomonas aeruginosa PAO1 infected in Caenorhabditis elegans assessed as increase in worm survival rate at 32 ug/ml incubated for 60 hrs; assay type: functional, organism-based; details: dose 32.0 µg/ml
Staphylococcus aureus [16] = assay: Bactericidal activity against Staphylococcus aureus ATCC 25923 assessed as inhibition of bacterial growth at 2 times MIC incubated upto 24 hrs by time-kill based microplate reader assay; assay type: functional, organism-based
Vero = assay: Cytotoxicity against green monkey Vero cells assessed as reduction in cell viability at 1 to 32 ug/ml incubated for 24 hrs by MTT assay; assay type: toxicity, cell-based; details: chlorocebus sabaeus, dose 1-32 µg/ml

| Structure (SMILES) | IC50 (Pseudomonas aeruginosa [1]) [µg/mL] | MIC (Klebsiella pneumoniae) [µg/mL] | MIC (Staphylococcus aureus [2]) [µg/mL] | MIC (Escherichia coli) [µg/mL] | IC50 (Pseudomonas aeruginosa [3]) [µg/mL] | MIC (Pseudomonas aeruginosa [4]) [µg/mL] | MIC (Pseudomonas aeruginosa [5]) [µg/mL] | MIC (Pseudomonas aeruginosa [6]) [µg/mL] | IC50 (Pseudomonas aeruginosa [7]) [µg/mL] | MIC (Pseudomonas aeruginosa [8]) [µg/mL] | MIC (Pseudomonas aeruginosa [9]) [µg/mL] | MIC (Pseudomonas aeruginosa [10]) [µg/mL] | MIC (Pseudomonas aeruginosa [11]) [µg/mL] | MIC (Pseudomonas aeruginosa [12]) [µg/mL] | Activity (Staphylococcus aureus [13]) | Activity (Pseudomonas aeruginosa [14]) | Activity (Pseudomonas aeruginosa [15]) | Activity (Staphylococcus aureus [16]) | Activity (Vero) |
| --- | --- | --- | --- | --- | --- | --- | --- | --- | --- | --- | --- | --- | --- | --- | --- | --- | --- | --- | --- |
| CC(C)=CCc1c(OCCCCCC(=O)NCc2cc(=O)c(O)cn2C)ccc(C(=O)/C=C/c2ccc(O)cc2)c1O | > 128 | > 128 | 32 | > 128 | 19.7 | 16 | 16 | > 128 | 1.72 | 32 | 16 | 8 | 32 | 8 | – | – | – | – | – |
| CC(C)=CCc1c(O)ccc(C(=O)/C=C/c2ccc(OCCCCCCOCc3c(O)c(=O)cc(C)n3C)cc2)c1O | > 128 | > 128 | > 128 | > 128 | 10.2 | 32 | 8 | > 128 | 7.87 | > 128 | 32 | 16 | 32 | 8 | inactive | – | – | – | – |
| CC(C)=CCc1c(O)ccc(C(=O)/C=C/c2ccc(O)cc2)c1O [ISOBAVACHALCONE] | > 128 | > 128 | 4 | > 128 | > 128 | > 128 | > 128 | > 128 | > 128 | > 128 | > 128 | > 128 | > 128 | > 128 | – | inactive | inactive | Active | Non-Toxic |
| CC(C)=CCc1c(O)ccc(C(=O)/C=C/c2ccc(OCCCCCCOCc3cc(=O)c(O)cn3C)cc2)c1O | > 128 | > 128 | > 128 | > 128 | 7.31 | 16 | 8 | > 128 | 3.39 | 16 | 16 | 8 | 32 | 8 | inactive | – | – | – | – |
| CC(C)=CCc1c(O)ccc(C(=O)/C=C/c2ccc(OCCCCCC(=O)NCc3cc(=O)c(O)cn3C)cc2)c1O | > 128 | > 128 | 32 | > 128 | 19.4 | 16 | 32 | > 128 | 1.46 | 32 | 16 | 32 | 32 | 16 | – | – | – | – | – |
